Measured values taken from patent US10370376B2, “Amorphous substance of Idelalisib and preparation method therefor” (Alnova Pharmaceuticals, Ltd., priority 2015, dated 2019).
In brackets after ≈: the same amount, converted by molar mass.

Experiments:
Format in all cases: physicochemical
[1] = Impact factor test of the amorphous Idelalisib (high temperature, high humidity; HPLC and XRPD)
[2] = Determination of apparent solubility (saturation solubility by HPLC) in diluents of different pH; conditions: for solubility at 12 h: 37 °C, thermodynamic from solid; for solubility at 12 h / Apparent solubility: shaken 12 hours, average of 3; for Apparent solubility: 37° C.
Experimental: The crystalline Idelalisib, Form I, was prepared according to the method of Example 1 of U.S. Pat. No. 8,865,730.
Determination of apparent solubility: weigh a certain amount of the sample into a 1.8 mL of centrifuge tube, add 1 mL of the specified pH diluent, cap tightly. Each solution was prepared with 3 replicates (the amount of the added sample must be much larger than of which can be formed a saturated solution at different pH, details were shown in Table 1), and then 1 mL of the designated pH diluent was added. Then the centrifuge tube containing the test solution was shaken in a water bath at 37° C.±0.5° C. for 12 hours, let Stand in an oven at 37° C. for 2 hours. The upper lay was filtered through a […] microporous membrane. Pipette 200 uL of the filtrated solution into a vial containing 200 uL of acetonitrile, shaken to mix. Label it as test solution. Inject 2 uL of the test solution to HPLC system, record the peak area of main peak. Inject the reference standard solution following the same procedure as the test solution, record the peak area of the main peak of reference standard. According to the main peak area of the test solution and the reference solution, the concentration of the reference solution and the concentration of the test solution are calculated by external standard method. Then the saturation solubility will be obtained by multiplying concentration by the dilution factor of 2. The final result of saturation solubility is the average result of three parallel test samples.
Preparation of reference standard solution: accurately weight about 25 mg of Idelalisib (Form I) into a 25 mL of volumetric flask, dissolve and dilute to the volume with diluent (acetonitrile:water=1:1). The concentration of the reference standard is about 1 mg/mL.
Preparation of Diluents of Different pH:
(1) pH=1.0 diluent: Add 9 mL of concentrated HCl to a 1000 mL of volumetric flask, diluted to the volume with water.
(2) pH=2.0 diluent: Solution A: Transfer 16.6 mL of phosphoric acid to a 100 mL volumetric flask, dilute to the volume with water, shake to mix. Solution B: Weigh and transfer 71.63 g of […] to a 1000 mL of volumetric flask, dilute to the volume with water, dissolve and mix well. Mix 72.5 mL of solution A and 27.5 mL of solution B.
(3) pH=3.0 diluent: transfer 50 mL of glacial acetic acid to a 1000 mL of volumetric flask, add 800 mL of water, adjust pH to 3.0 with lithium hydroxide, then diluted to the volume with water.
(4) pH=4.0 diluent: weigh and transfer 7.7 g of ammonium acetate, dissolve with 50 mL of water, add 6 mL of glacial acetic acid, then diluted to 100 mL with water.
(5) pH=5.6 diluent: Phthalate buffer (pH 5.6): Transfer 10 g of potassium hydrogen phthalate, add 900 mL of water, stir to dissolve, adjust pH to 5.6 with sodium hydroxide solution (or diluted hydrochloric acid if necessary) then diluted to the volume with water.
(6) pH=6.8 diluent: mix 250 mL of 0.2 mol/L potassium dihydrogen phosphate solution and 118 mL of 0.2 mol/L sodium hydroxide solution, diluted to 1000 mL with water, shaken to mix.
(7) pH=7.4 diluent: transfer 1.36 g of potassium dihydrogen phosphate, add 79 mL of 0.1 mol/L sodium hydroxide solution, diluted to 200 mL with water.

[3] = as above; conditions: pH 4.5 diluent, 37° C., shaken 12 hours, average of 3
[4] = Accelerated stability test of the amorphous Idelalisib (HPLC and XRPD); conditions: for Crystalline (XRPD) / Relevant substances (Total impurities %): Temperature 40° C. ± 2° C., Humidity 75% ± 5%
Experimental: Experiment conditions: temperature 40° C.±2° C., humidity 75%±5% The substance was detected by HPLC.

[5] = high temperature, high humidity after 10 days
[6] = accelerated test conditions after 6 months

CC[C@H](Nc1ncnc2[nH]cnc12)c1nc2cccc(F)c2c(=O)n1-c1ccccc1 [amorphous Idelalisib, 5-fluoro-3-phenyl-2-[(1S)-1-(9H-purin-6-ylamino)propyl]-4(3H)-quinazolinone]
Crystalline (XRPD) ([1]; 0 day): There is no peak of crystalline Idelalisib
Relevant substances (Total impurities %) ([1]; 0 day): 0.12%
Relevant substances (Total impurities %) ([1]; 5 days, Humidity 75% ± 5%): 0.14%
Relevant substances (Total impurities %) ([1]; 5 days, Humidity 90% ± 5%): 0.16%
Relevant substances (Total impurities %) ([1]; 5 days, Temperature 40° C. ± 2° C.): 0.13%
Relevant substances (Total impurities %) ([1]; 5 days, Temperature 60° C. ± 2° C.): 0.14%
Crystalline (XRPD) ([1]; 5 days, all four conditions (40° C., 60° C., humidity 75%, 90%)): There is no peak of crystalline Idelalisib
Relevant substances (Total impurities %) ([1]; 10 days, Humidity 75% ± 5%): 0.14%
Relevant substances (Total impurities %) ([1]; 10 days, Humidity 90% ± 5%): 0.16%
Relevant substances (Total impurities %) ([1]; 10 days, Temperature 40° C. ± 2° C.): 0.14%
Relevant substances (Total impurities %) ([1]; 10 days, Temperature 60° C. ± 2° C.): 0.16%
Crystalline (XRPD) ([1]; 10 days, all four conditions (40° C., 60° C., humidity 75%, 90%)): There is no peak of crystalline Idelalisib
Changes in the relevant substances [1, 5]: no significant changes
Crystallization of Idelalisib [1, 5]: no crystallization of Idelalisib was observed
Apparent solubility compared with that of the Form I ([2]; at each pH (1.0 to 7.4)): significantly higher
solubility at 12 h ([2]; pH 1.0 diluent (dilute HCl), pH 1, simulated gastric fluid, pH 1.0 diluent): 52700 µg/mL (≈ 127000 µM)
Apparent solubility ([2]; pH 2.0 diluent): 7037.94 µg/mL
Apparent solubility ([2]; pH 3.0 diluent): 1622.95 µg/mL
solubility at 12 h ([2]; pH 5.6 diluent (phthalate buffer), pH 5.6, aqueous buffer, pH 5.6 diluent): 75.8 µg/mL (≈ 182 µM)
solubility at 12 h ([2]; pH 6.8 diluent (phosphate buffer), pH 6.8, aqueous buffer, pH 6.8 diluent): 75.3 µg/mL (≈ 181 µM)
solubility at 12 h ([2]; pH 7.4 diluent (phosphate buffer), pH 7.4, aqueous buffer, pH 7.4 diluent): 74.3 µg/mL (≈ 179 µM)
Apparent solubility [3]: 694.19 µg/mL
Crystalline (XRPD) ([4]; 0 month): There is no peak of crystalline Idelalisib
Relevant substances (Total impurities %) ([4]; 0 month): 0.12%
Crystalline (XRPD) ([4]; 1 month): There is no peak of crystalline Idelalisib
Relevant substances (Total impurities %) ([4]; 1 month): 0.14%
Crystalline (XRPD) ([4]; 2 months): There is no peak of crystalline Idelalisib
Relevant substances (Total impurities %) ([4]; 2 months): 0.15%
Crystalline (XRPD) ([4]; 3 months): There is no peak of crystalline Idelalisib
Relevant substances (Total impurities %) ([4]; 3 months): 0.16%
Crystalline (XRPD) ([4]; 6 months): There is no peak of crystalline Idelalisib
Relevant substances (Total impurities %) ([4]; 6 months): 0.19%
Changes in the relevant substances [4, 6]: no significant changes
Crystallization of Idelalisib [4, 6]: no crystallization of Idelalisib was observed

CC[C@H](Nc1ncnc2[nH]cnc12)c1nc2cccc(F)c2c(=O)n1-c1ccccc1 [crystalline Idelalisib (Form I), 5-fluoro-3-phenyl-2-[(1S)-1-(9H-purin-6-ylamino)propyl]-4(3H)-quinazolinone, reference compound]
Apparent solubility ([2]; pH 1.0 diluent): 34580.16 µg/mL
Apparent solubility ([2]; pH 2.0 diluent): 1756.55 µg/mL
Apparent solubility ([2]; pH 3.0 diluent): 317.47 µg/mL
Apparent solubility ([2]; pH 5.6 diluent): 46.91 µg/mL
Apparent solubility ([2]; pH 6.8 diluent): 47.35 µg/mL
Apparent solubility ([2]; pH 7.4 diluent): 45.08 µg/mL
Apparent solubility [3]: 147.02 µg/mL
